Counter-ions that a name gives are not always drawn.
These compounds were tested on IL-2 production (assay: Inhibition of IL-2 production in PHA-activated Jurkat cells (ELISA)). Conditions: Homo sapiens, Jurkat, 20 h, PHA 2.5 μg/mL.
Assay type: cell-based
Method: Jurkat cells were placed in a 96 well plate (0.5 million cells per well in 1% FBS medium) then a test compound of this invention was added at different concentrations. After 10 minutes, the cells were activated with PHA (final concentration 2.5 μg/mL) and incubated for 20 hours at 37° C. under CO2. The final volume was 200 μL. Following incubation, the cells were centrifuged and the supernatants were collected and stored at −70° C. prior to assaying for IL-2 production. A commercial ELISA kit (IL-2 Eli-pair, Diaclone Research, Besancon, France) was used to detect production of IL-2, from which dose response curves were obtained. The IC50 value was calculated as the concentration at which 50% of maximum IL-2 production after stimulation was inhibited versus a non-stimulation control.

Structure (SMILES) | IC50 [nM]
O=C(Nc1cnc(-n2c(C(F)(F)F)nc3cc(O)ccc32)cn1)c1c(F)cccc1F [Compound 4, 2,6-Difluoro-N-[5-(5-hydroxy-2-trifluoromethyl-benzoimidazol-1-yl)-pyrazin-2-yl]-benzamide, sodium salt] | 14

Same assay, conditions: Homo sapiens, PHA 2.5 μg/mL, 20 hours

Structure (SMILES) | IC50 [nM]
O=C(Nc1cnc(-n2c(C(F)(F)F)nc3cc(O)ccc32)cn1)c1c(F)cccc1F [Compound 1, 2,6-Difluoro-N-[5-(5-hydroxy-2-trifluoromethyl-benzoimidazol-1-yl)-pyrazin-2-yl]-benzamide] | 34
Nc1ccc2c(c1)nc(C(F)(F)F)n2-c1cnc(NC(=O)c2c(F)cccc2F)cn1 [Compound 6, N-[5-(5-Amino-2-trifluoromethyl-benzoimidazol-1-yl)-pyrazin-2-yl]-2,6-difluoro-benzamide] | 97
O=C(Nc1cnc(-n2c(C(F)(F)F)nc3cc(-c4nnco4)ccc32)cn1)c1c(F)cccc1F [Compound 8, 2,6-Difluoro-N-[5-(5-[1,3,4]oxadiazol-2-yl-2-trifluoromethyl-benzoimidazol-1-yl)-pyrazin-2-yl]-benzamide] | 39

Next, values leading:

IC50 [nM] | Structure (SMILES)
89 | O=C(Nc1cnc(-n2c(C(F)(F)F)nc3cc([N+](=O)[O-])ccc32)cn1)c1c(F)cccc1F [Compound 2, 2,6-Difluoro-N-[5-(5-nitro-2-trifluoromethyl-benzoimidazol-1-yl)-pyrazin-2-yl]-benzamide]
102 | COc1ccc2c(c1)nc(C)n2-c1cnc(NC(=O)c2c(F)cccc2F)cn1 [Compound 3, 2,6-Difluoro-N-[5-(5-methoxy-2-methyl-benzoimidazol-1-yl)-pyrazin-2-yl]-benzamide]
29 | CN(C)c1ccc2c(c1)nc(C(F)(F)F)n2-c1cnc(NC(=O)c2c(F)cccc2F)cn1 [Compound 5, N-[5-(5-Dimethylamino-2-trifluoromethyl-benzoimidazol-1-yl)-pyrazin-2-yl]-2,6-difluoro-benzamide]
84 | Cc1nnc(-c2ccc3c(c2)nc(C(F)(F)F)n3-c2cnc(NC(=O)c3c(F)cccc3F)cn2)o1 [Compound 9, 2,6-Difluoro-N-{5-[5-(5-methyl-[1,3,4]oxadiazol-2-yl)-2-trifluoromethyl-benzoimidazol-1-yl]-pyrazin-2-yl}-benzamide]
